Source: US20230255864A1, “NOVEL COMPOSITIONS COMBINING HEMP DERIVATIVES AND AT LEAST ONE PEPTIDE AND USE THEREOF” (FRANCE COSMEPHYL-LAB, priority 2020, published 2023)
“And” between values parts separate entries of the source, which are not always exact repeats. Identical values can stand only once. Like-named read-outs stand apart in the source and are kept apart here.

Columns and labels:
[1] = test system: RAW 267.4 murine macrophages; assay: Cell viability of murine macrophages (WST-1 mitochondrial respiration), in parallel with NO release; type: cell-based
Method: (§1) MURINS RAW 267.4 Macrophage cell line (Sigma-Aldrich, No. P6110401, Lot. 091006), low number of passages (less than 50).
(§2) Complete medium: DMEM with stabilized L-glutamine (Dulbecco's Minimum Essential Medium, PAN BIOTECH. Lot 974251) supplemented with Penicillin 100 IU/ml and streptomycin 100 μg/m1 (PAN BIOTECH, Lot 225614), and 10% inactivated calf serum (PAN BIOTECH, Lot P460518), pH 7.2, freshly prepared, stored for less than 3 weeks.
(§3) Cannabidiol (CBD) is diluted in DMSO (10 mg/mL storage solution), and subjected to an ultrasonic bath for 20 minutes. The Neutrazen™ solution is diluted in PBS (Phosphate buffer saline, Sigma-Aldrich).
(§4) RAW 267.4 murine macrophages were inoculated into 48-well tissue culture plates at a concentration of 1.10^5 cells/ml (200 μl/well) and incubated for 24 hours at 37° C. (5% CO2).
(§5) At the end of the incubation period, the culture medium was replaced with 200 μl of medium containing the appropriate concentrations of the material to be tested, and the cells were incubated at 37° C. (5% CO2) for one hour.
(§6) At the end of the incubation period, pro-inflammatory E. coli LPS was added to the cell cultures (1 μg/ml. Then the cells were incubated at 37° C. (5% CO2) for 24 hours.
(§7) In parallel with the evaluation of the release of NO, the cell viability was measured to validate the tests. Vital Stain Reagent WST-1 was used to measure cellular mitochondrial respiration. For this, the culture medium was decanted and 100 μl of WST-1 reagent ( 1/10 dilution) were added to each well. After an incubation period of 30 min at 37° C. (5% CO2), the Optical Density (OD) of each well was read at a wavelength of 450 nm by an Infinite M200 Pro fluorescence-luminescence reader (TECAN). The results obtained for the wells treated with the test material were compared with those of the untreated control wells (DMSO, 100% viability) and converted into percentage values.
(§8) Inhibition of NO release and inhibition of cell viability were expressed as a percentage relative to the negative controls: […]
(§9) The concentrations of test material causing a 50% decrease in NO release (IC50 (NO release)) and a 50% decrease in cell viability (IC50 (cell viability)) respectively were calculated using TableCurve software Version 2.0.
(§10) Analysis of the anti-inflammatory activity and of the cell viability of the cannabidiol/palmitoyl tripeptide-8 (Neutrazen™) association in a mixture by isobologram analysis. For each concentration of Neutrazen™ (0.01, 0.025, 0.05 and 0.1%), different concentrations of CBD are tested (0.01, 0.025, 0.05, 0.1, 0.25, 0.5, 1 and 2.5%) to determine both the production of NO and cell viability.
(§11) The results obtained with the different mixtures of CBD and Neutrazen™ made it possible to calculate the pairs of concentrations corresponding to a 50% reduction in the production of NO and a 50% reduction in cell viability.

[2] = as above; type: cell-based; details: mouse, read-out: Cell viability (% as compared to the negative control)
Method: as §1, §2, §3, §4, §5, §6, §7, §8, §9, §10, §11

## C=C(C)[C@@H]1CCC(C)=C[C@H]1c1c(O)cc(CCCCC)cc1O [CBD]
[1]; CBD 0.01 weight % in mixture with NeutraZen 0.01%
  Cell viability (% as compared to the negative control): 99.54% and 101.55%
[1]; CBD 0.01 weight % in mixture with NeutraZen 0.025%
  Cell viability (% as compared to the negative control): 101.86%
[1]; CBD 0.01 weight % in mixture with NeutraZen 0.05%
  Cell viability (% as compared to the negative control): 101.83% and 101.55%
[1]; CBD 0.01 weight % in mixture with NeutraZen 0.1%
  Cell viability (% as compared to the negative control): 100.00%
[1]; CBD 0.025 weight % in mixture with NeutraZen 0.01%
  Cell viability (% as compared to the negative control): 99.24% and 100.77%
[1]; CBD 0.025 weight % in mixture with NeutraZen 0.025%
  Cell viability (% as compared to the negative control): 100.76% and 101.08%
[1]; CBD 0.025 weight % in mixture with NeutraZen 0.05%
  Cell viability (% as compared to the negative control): 101.22% and 100.77%
[1]; CBD 0.025 weight % in mixture with NeutraZen 0.1%
  Cell viability (% as compared to the negative control): 100.15%
[1]; CBD 0.05 weight % in mixture with NeutraZen 0.01%
  Cell viability (% as compared to the negative control): 98.93% and 100.62%
[1]; CBD 0.05 weight % in mixture with NeutraZen 0.025%
  Cell viability (% as compared to the negative control): 96.18% and 100.31%
[1]; CBD 0.05 weight % in mixture with NeutraZen 0.05%
  Cell viability (% as compared to the negative control): 100.61% and 100.62%
[1]; CBD 0.05 weight % in mixture with NeutraZen 0.1%
  Cell viability (% as compared to the negative control): 99.54% and 100.00%
[1]; CBD 0.1 weight % in mixture with NeutraZen 0.01%
  Cell viability (% as compared to the negative control): 100.00% and 102.63%
[1]; CBD 0.1 weight % in mixture with NeutraZen 0.025%
  Cell viability (% as compared to the negative control): 96.34% and 99.23%
[1]; CBD 0.1 weight % in mixture with NeutraZen 0.05%
  Cell viability (% as compared to the negative control): 100.00%
[1]; CBD 0.1 weight % in mixture with NeutraZen 0.1%
  Cell viability (% as compared to the negative control): 99.54%
[1]; CBD 0.25 weight % in mixture with NeutraZen 0.01%
  Cell viability (% as compared to the negative control): 89.77% and 93.81%
[1]; CBD 0.25 weight % in mixture with NeutraZen 0.025%
  Cell viability (% as compared to the negative control): 88.09% and 89.16%
[1]; CBD 0.25 weight % in mixture with NeutraZen 0.05%
  Cell viability (% as compared to the negative control): 100.31%
[1]; CBD 0.25 weight % in mixture with NeutraZen 0.1%
  Cell viability (% as compared to the negative control): 97.40% and 98.61%
[1]; CBD 0.5 weight % in mixture with NeutraZen 0.01%
  Cell viability (% as compared to the negative control): 7.18% and 6.81%
[1]; CBD 0.5 weight % in mixture with NeutraZen 0.025%
  Cell viability (% as compared to the negative control): 7.33% and 7.43%
[1]; CBD 0.5 weight % in mixture with NeutraZen 0.05%
  Cell viability (% as compared to the negative control): 9.16% and 7.59%
[1]; CBD 0.5 weight % in mixture with NeutraZen 0.1%
  Cell viability (% as compared to the negative control): 9.47% and 8.20%
[1]; CBD 1 weight % in mixture with NeutraZen 0.01%
  Cell viability (% as compared to the negative control): 5.95% and 5.57%
[1]; CBD 1 weight % in mixture with NeutraZen 0.025%
  Cell viability (% as compared to the negative control): 5.34% and 4.95%
[1]; CBD 1 weight % in mixture with NeutraZen 0.05%
  Cell viability (% as compared to the negative control): 7.43%
[1]; CBD 1 weight % in mixture with NeutraZen 0.1%
  Cell viability (% as compared to the negative control): 8.40% and 7.59%
[1]; CBD 2.5 weight % in mixture with NeutraZen 0.01%
  Cell viability (% as compared to the negative control): 5.65% and 4.33%
[1]; CBD 2.5 weight % in mixture with NeutraZen 0.025%
  Cell viability (% as compared to the negative control): 4.49%
[1]; CBD 2.5 weight % in mixture with NeutraZen 0.05%
  Cell viability (% as compared to the negative control): 7.79% and 6.97%
[1]; CBD 2.5 weight % in mixture with NeutraZen 0.1%
  Cell viability (% as compared to the negative control): 7.63% and 6.35%
[1]; sample alone at 0.01 weight %
  Cell viability (% as compared to the negative control): 99.69% and 100.15%
[1]; sample alone at 0.025 weight %
  Cell viability (% as compared to the negative control): 99.85% and 99.23%
[1]; sample alone at 0.05 weight %
  Cell viability (% as compared to the negative control): 94.50% and 93.81%
[1]; sample alone at 0.1 weight %
  Cell viability (% as compared to the negative control): 51.15% and 55.11%
[1]; sample alone at 0.25 weight %
  Cell viability (% as compared to the negative control): 5.65% and 5.73%
[1]; sample alone at 0.5 weight %
  Cell viability (% as compared to the negative control): 3.97% and 3.25%
[1]; sample alone at 1 weight %
  Cell viability (% as compared to the negative control): 1.98% and 1.86%
[1]; sample alone at 2.5 weight %
  Cell viability (% as compared to the negative control): 1.98% and 2.14% and 0.46%
[2]; pH 7.2, CBD 0.01 weight % in mixture with NeutraZen 0.01%
  viability at 25 h, 0.01 weight %: 98.6%
[2]; pH 7.2, CBD 0.01 weight % in mixture with NeutraZen 0.025%
  viability at 25 h, 0.01 weight %: 102%
[2]; pH 7.2, CBD 0.01 weight % in mixture with NeutraZen 0.05%
  viability at 25 h, 0.01 weight %: 98%
[2]; pH 7.2, CBD 0.01 weight % in mixture with NeutraZen 0.1%
  viability at 25 h, 0.01 weight %: 101%
[2]; pH 7.2, CBD 0.025 weight % in mixture with NeutraZen 0.01%
  viability at 25 h, 0.025 weight %: 99.7%
[2]; pH 7.2, CBD 0.025 weight % in mixture with NeutraZen 0.025%
  viability at 25 h, 0.025 weight %: 104%
[2]; pH 7.2, CBD 0.025 weight % in mixture with NeutraZen 0.05%
  viability at 25 h, 0.025 weight %: 99.1%
[2]; pH 7.2, CBD 0.025 weight % in mixture with NeutraZen 0.1%
  viability at 25 h, 0.025 weight %: 99.7%
[2]; pH 7.2, CBD 0.05 weight % in mixture with NeutraZen 0.01%
  viability at 25 h, 0.05 weight %: 97.7%
[2]; pH 7.2, CBD 0.05 weight % in mixture with NeutraZen 0.025%
  viability at 25 h, 0.05 weight %: 96.2%
[2]; pH 7.2, CBD 0.05 weight % in mixture with NeutraZen 0.05%
  viability at 25 h, 0.05 weight %: 101%
[2]; pH 7.2, CBD 0.05 weight % in mixture with NeutraZen 0.1%
  viability at 25 h, 0.05 weight %: 103%
[2]; pH 7.2, CBD 0.1 weight % in mixture with NeutraZen 0.01%
  viability at 25 h, 0.1 weight %: 102%
[2]; pH 7.2, CBD 0.1 weight % in mixture with NeutraZen 0.025%
  viability at 25 h, 0.1 weight %: 100%
[2]; pH 7.2, CBD 0.1 weight % in mixture with NeutraZen 0.05%
  viability at 25 h, 0.1 weight %: 100%
[2]; pH 7.2, CBD 0.1 weight % in mixture with NeutraZen 0.1%
  viability at 25 h, 0.1 weight %: 97.1%
[2]; pH 7.2, CBD 0.25 weight % in mixture with NeutraZen 0.01%
  viability at 25 h, 0.25 weight %: 92.2%
[2]; pH 7.2, CBD 0.25 weight % in mixture with NeutraZen 0.025%
  viability at 25 h, 0.25 weight %: 88.5%
[2]; pH 7.2, CBD 0.25 weight % in mixture with NeutraZen 0.05%
  viability at 25 h, 0.25 weight %: 98.6%
[2]; pH 7.2, CBD 0.25 weight % in mixture with NeutraZen 0.1%
  viability at 25 h, 0.25 weight %: 95.7%
[2]; pH 7.2, CBD 0.5 weight % in mixture with NeutraZen 0.01%
  viability at 25 h, 0.5 weight %: 6.34%
[2]; pH 7.2, CBD 0.5 weight % in mixture with NeutraZen 0.025%
  viability at 25 h, 0.5 weight %: 6.95%
[2]; pH 7.2, CBD 0.5 weight % in mixture with NeutraZen 0.05%
  viability at 25 h, 0.5 weight %: 7.76%
[2]; pH 7.2, CBD 0.5 weight % in mixture with NeutraZen 0.1%
  viability at 25 h, 0.5 weight %: 8.56%
[2]; pH 7.2, CBD 1 weight % in mixture with NeutraZen 0.01%
  viability at 25 h, 1 weight %: 5.66%
[2]; pH 7.2, CBD 1 weight % in mixture with NeutraZen 0.025%
  viability at 25 h, 1 weight %: 5.19%
[2]; pH 7.2, CBD 1 weight % in mixture with NeutraZen 0.05%
  viability at 25 h, 1 weight %: 7.74%
[2]; pH 7.2, CBD 1 weight % in mixture with NeutraZen 0.1%
  viability at 25 h, 1 weight %: 8.58%
[2]; pH 7.2, CBD 2.5 weight % in mixture with NeutraZen 0.01%
  viability at 25 h, 2.5 weight %: 7.21%
[2]; pH 7.2, CBD 2.5 weight % in mixture with NeutraZen 0.025%
  viability at 25 h, 2.5 weight %: 4.12%
[2]; pH 7.2, CBD 2.5 weight % in mixture with NeutraZen 0.05%
  viability at 25 h, 2.5 weight %: 8.14%
[2]; pH 7.2, CBD 2.5 weight % in mixture with NeutraZen 0.1%
  viability at 25 h, 2.5 weight %: 8.93%
[2]; pH 7.2, sample alone at 0.01 weight %
  viability at 25 h, 0.01 weight %: 99.4%
[2]; pH 7.2, sample alone at 0.025 weight %
  viability at 25 h, 0.025 weight %: 98.3%
[2]; pH 7.2, sample alone at 0.05 weight %
  viability at 25 h, 0.05 weight %: 97.9%
[2]; pH 7.2, sample alone at 0.1 weight %
  viability at 25 h, 0.1 weight %: 53.1%
[2]; pH 7.2, sample alone at 0.25 weight %
  viability at 25 h, 0.25 weight %: 8.24%
[2]; pH 7.2, sample alone at 0.5 weight %
  viability at 25 h, 0.5 weight %: 4.73%
[2]; pH 7.2, sample alone at 1 weight %
  viability at 25 h, 1 weight %: 2.9%
